# Results taken from patent US8263631B2, “Anti-cancer pharmaceutical compositions and methods for treating patients with cancer” (Daiichi Sankyo Company, Limited, priority 2006, dated 2012).
# Marks after values point to notes of the source that are not given here.
# Columns and labels:
# [1] = system: human kidney cancer line SN12-PM6; experiment: In vivo anti-tumor activity against human kidney cancer (SN12-PM6 tumor-bearing nude mouse); conditions: 0.1 mL per 10 g orally, once a day, 5 times per week, day 10 to 56
# Description: In the experiment, human kidney cancer line SN12-PM6 (provided by Professor Seiji Naito of Kyushu University), in which it was confirmed that no mouse pathogenic microorganism was detected by quarantine, was transplanted to a subcutaneous axillary portion of a nude mouse BALB/cA Jcl-nu (CLEA Japan, Inc.), to subculture a tumor. The tumor was cut into small pieces in a size of 5 mm, and transplanted to a right subcutaneous axillary portion of a BALE/cA Jcl-nu mouse by using a troker (CLEA Japan, Inc.). […] Subsequently, distilled water (Otsuka Pharmaceutical Factory, Inc.) was added so that the final concentrations of ethanol and cremophor became each 12.5%. […] Twice a week, the major axis and the minor axis of the transplanted tumor were measured using digital micrometer calipers (MAX-CAL MAX-15: Nihon Sokutei Kougu Kabusikikaisha), and tumor proliferation inhibitory activity was obtained from the following calculation formula and expressed as the tumor volume inhibition rate. […]
# Evaluation of anti-tumor activity for each of the drug administration group was determined by the tumor volume inhibition rate. In addition, a statistical difference test was determined by conducting Students' t test with respect to the tumor volumes of the drug non-administration control group and the drug administration group 59 days after transplantation.
# [2] = system: human non-small-cell lung cancer line A549; experiment: In vitro cell proliferation inhibitory activity, combination with VEGFR and Raf kinase inhibitor; format: cell-based; conditions: Compound X 10 μM alone, A549, 6 days
# Protocol: Human non-small-cell lung cancer line A549 cells were inoculated on a 96-well plate at 5×10^2 cells/well, and at the same time, agents of various concentrations dissolved in DMSO were added so that the concentration of DMSO became 0.1%. […] After addition of the drugs, the cells were cultivated in the presence of 5% carbon dioxide at 37° C. for 6 days. Then, Cell Titer 96 Aqueous One Solution Reagent (Promega Corp.) was added at 40 μl/well each, and then absorbance A490 of each well was measured using MICROPLATE READER (Bio-Rad Laboratories, Inc.).
# [3] = system: human non-small-cell lung cancer line A549; experiment: In vivo anti-tumor activity against non-small-cell lung cancer (A549 tumor-bearing nude mouse); conditions: Compound X alone, 1 mg/mL, 0.1 mL per 10 g orally, once a day, 5 times per week, day 14 to 60
# Description: In the experiment, human non-small-cell lung cancer line A549 (purchased from American Type Culture Collection), in which it was confirmed that no mouse pathogenic microorganism was detected by quarantine, was transplanted to a subcutaneous axillary portion of a nude mouse BALB/cA Jcl-nu (CLEA Japan, Inc.), to subculture a tumor. The tumor was cut into small pieces of 5 mm size, and transplanted to a right subcutaneous axillary portion of a BALB/cA Jcl-nu mouse by using a troker (CLEA Japan, Inc.). […] Twice a week, the major axis and the minor axis of the transplanted tumor were measured using digital micrometer calipers (MAX-CAL MAX-15: Nihon Sokutei Kougu Kabusiki Kaisha), and tumor proliferation inhibitory activity was obtained from the following calculation formula and expressed as the tumor volume inhibition rate. […]
# Evaluation of anti-tumor activity for each of the drug administration groups was determined by the tumor volume inhibition rate. In addition, a statistical difference test was determined by conducting Students' t test with respect to tumor volume of the drug non-administration control group and the drug administration group 63 days after transplantation.
# [4] = system: human colon cancer line WiDr; experiment: In vivo anti-tumor activity against human colon cancer cells (WiDr tumor-bearing nude mouse); conditions: once a day, 5 times per week
# Description: In the experiment, human colon cancer line WiDr (purchased from American Type Culture Collection), in which it was confirmed that no mouse pathogenic microorganism was detected by quarantine, was transplanted to a subcutaneous axillary portion of a nude mouse BALB/cA Jcl-nu (CLEA Japan, Inc.), to subculture a tumor. The tumor was cut into small pieces of 5 mm size, and was transplanted to a right subcutaneous axillary portion of a BALB/cA Jcl-nu mouse by using a troker (CLEA Japan, Inc.). The required amounts of Compounds X and Y were each weighed and were dissolved in N,N-dimethylacetamide (DMA: Wako Pure Chemical Industries, Ltd.), and 5% Emulphor 620 (GAF Corporation)-saline (Otsuka Pharmaceutical Co., Ltd.) was then added to the mixtures in small amounts, so that the concentrations of the compounds were each adjusted to 0.2, 1 or 5 mg/mL. Here, DMA was made to have a final concentration of 2.5%. […] Twice a week, the major axis and the minor axis of the transplanted tumor were measured using digital micrometer calipers (MAX-CAL MAX-15: Nihon Sokutei Kougu Kabusiki Kaisha), and tumor proliferation inhibitory activity was obtained from the following calculation formula and expressed as the tumor volume inhibition rate. Average tumor volume in each test group (mm^3)=½×(minor axis)^2 (mm^2)×(major axis) (mm) Tumor volume inhibition rate (%)={1−(average tumor volume of drug administration group/average tumor volume of drug non-administration group)}×100
# Evaluation of anti-tumor activity of each of the drug administration groups was determined by the tumor volume inhibition rate. In addition, a statistical difference test was determined by conducting Students' t test with respect to the tumor the volume of drug non-administration control group and the drug administration group 38 days after transplantation.
# [5] = system: human non-small-cell lung cancer line A549; experiment: In vitro cell proliferation inhibitory activity, combination with EGFR inhibitor; conditions: Compound X 10 μM alone, A549, 7 days
# Protocol: Human non-small-cell lung cancer line A549 cells (purchased from American Tissue Culture Collection) were cultured using 10% fetal bovine serum (Hyclone Laboratories, Inc.)-RPMI (Invitrogen Corporation). A549 cells were inoculated on a 96-well plate at 5×10^2 cells/well, and at the same time, the agents of various concentrations dissolved in DMSO were added so that the concentration of DMSO became 0.1%. […] After the addition of the drugs, cells were cultivated in the presence of 5% carbon dioxide at 37° C. for 7 days. Then, Cell Titer 96 Aqueous One Solution Reagent (Promega Corp.) was added at 40 μl/well each, followed by 2 hours of cultivation. Absorbance A490 of each well was measured using MICROPLATE READER (Bio-Rad Laboratories, Inc.).
# [6] = system: human leukemia cell line HL-60; experiment: Cell proliferation inhibitory activity against human leukemia cell (Cell Titer 96); format: cell-based; conditions: 5 days
# [7] = system: MKN74, MKN28, ZR-75-1, SBC-1, AsPC-1, DU-145, ACHN, D341 Med, A-204, RD-ES, SW872, U266 cancer cell lines; experiment: Evaluation of cancer cell proliferation inhibitory activity (sulforhodamine B staining, absorbance A490); format: cell-based, human; conditions: 0.1, 1 or 10 μM (AsPC-1: 0.05, 0.5 or 5 μM), 7 days (U266: 4 days); all cancer cell lines, FIGS. 1-3
# Description: Human gastric cancer cell line (MKN74, MKN28) purchased from Immuno-Biological Laboratories Co., Ltd., human breast cancer cell line (ZR-75-1), small-cell lung cancer line (SBC-1), pancreatic cancer cell line (AsPC-1), prostate cancer cell line (DU-145), kidney cancer cell line (ACHN), medulloblastoma line (D341 Med), human sarcoma cell line (rhabdomyosarcoma line A-204, Ewing's sarcoma line RD-ES, liposarcoma line SW872) and multiple myeloma line (U266) that were purchased from […] were used in the test. […]
# To the control group was added only DMSO so that its concentration became 0.1%. […] 10 mM Tris was added at […] to each well in which cancer cells were immobilized and stained, and absorbance A490 of each well was measured using MICROPLATE READER Model 3550 (Bio-Rad Laboratories, Inc.). […]
# In each of the graphs, the longitudinal axis represents the absorbance [%], and the horizontal axis represents the concentration of Compound X [μM].
# [8] = system: human leukemia cell line THP-1; experiment: Cell proliferation inhibitory activity against human leukemia cell (Cell Titer 96); format: cell-based; conditions: 5 days
# [9] = 2 mg/kg orally, determined on Day 35, Exp. 2
# [10] = 10 mg/kg orally, determined on Day 35, Exp. 2
# [11] = 50 mg/kg orally, determined on Day 35, Exp. 1
# [12] = 50 mg/kg orally, determined on Day 35, Exp. 2
Structure (SMILES),"Tumor volume inhibition rate ([1]; Compound X alone, 0.3 mg/mL) [%]",Proliferation inhibition rate [2] [%],Tumor volume inhibition rate [3] [%],"Tumor volume inhibition rate [4, 9]","Tumor volume inhibition rate [4, 10]","Tumor volume inhibition rate [4, 11]","Tumor volume inhibition rate [4, 12]",Cell proliferation inhibition rate [5] [%],HL-60 Proliferation inhibition rate ([6]; Compound X 10 μM) [%],HL-60 Proliferation inhibition rate ([6]; Compound X 25 μM),HL-60 Proliferation inhibition rate ([6]; Compound X 50 μM),cancer cell proliferation inhibitory activity (absorbance % of DMSO control) [7],THP-1 Proliferation inhibition rate ([8]; Compound X 10 μM) [%],THP-1 Proliferation inhibition rate ([8]; Compound X 25 μM) [%],THP-1 Proliferation inhibition rate ([8]; Compound X 50 μM),"Tumor volume inhibition rate ([1]; sorafenib alone, 10 mg/mL) [%]"
"Cc1cc(Oc2ccc3nc(COc4ccc(CC5SC(=O)NC5=O)cc4)n(C)c3c2)cc(C)c1N.Cl.Cl (centres unmarked) [Compound X, 5-(4-(6-(4-Amino-3,5-dimethyl-phenoxy)-1-methyl-1H-benzimidazol-2-ylmethoxy)-benzyl)-thiazolidine-2,4-dione.dihydrochloride]",37,15,33,31* %,35* %,49* %,38* %,12,23,27* %,45** %,significant proliferation inhibitory activity,7,20,48** %,–
"CC(C)Nc1cccc(Oc2ccc3nc(COc4ccc(CC5SC(=O)NC5=O)cc4)n(C)c3c2)c1.Cl.Cl (centres unmarked) [Compound Y, 5-(4-(6-(3-Isopropylamino-phenoxy)-1-methyl-1H-benzimidazol-2-ylmethoxy)-benzyl)-thiazolidine-2,4-dione.dihydrochloride]",–,–,–,26* %,32* %,35* %,40* %,–,–,–,–,–,–,–,–,–
"CNC(=O)c1cc(Oc2ccc(NC(=O)Nc3ccc(Cl)c(C(F)(F)F)c3)cc2)ccn1 [Sorafenib, sorafenib, reference compound]",–,–,–,–,–,–,–,–,–,–,–,–,–,–,–,43
